Laboratory results reported in patent publication US7504497B2, “Orally bioavailable compounds and methods for inhibiting platelet aggregation” (Inspire Pharmaceuticals, Inc., priority 2005, dated 2009).
Where two headings read alike, the source gives them in different places.

Columns and labels:
[1] = tested on: washed human platelets; assay: Inhibition of ADP-induced platelet aggregation in washed human platelets; type: cell-based; settings: for IC50: ADP agonist challenge typically 1-5 μM, average of two experiments or more; for % inhibition of ADP-induced platelet aggregation at fixed concentration: antagonist at 0.3 μM, ADP typically 1-5 μM
Method: Isolation of Platelets: Human blood is obtained from informed healthy adult volunteers. Blood is collected into one-sixth volume of acid/citrate/dextrose (ACD) buffer (85 mM sodium citrate, 65 mM citric acid, and 110 mM glucose). Collected blood is placed in a water bath at 37° C. for 30 minutes. Blood is then centrifuged at 275×g for 16 minutes at room temperature and the platelet-rich plasma is removed and centrifuged at 2200×g for 13 minutes at room temperature. The platelet pellet is resuspended in 40 mL of HEPES-buffered Tyrode's solution (137 mM NaCl, 2.7 mM KCl, 1 mM MgCl2, 2 mM CaCl2, 12 mM NaHCO3, 0.36 mM NaH2PO4, 5.5 mM glucose, 5 mM HEPES pH 7.4, 0.35% bovine serum albumin or 0.35% human serum albumin) containing 10 U/mL heparin and 5 μM (final concentration) prostaglandin I2 (PGI2). The platelet suspension is incubated in a 37° C. water bath for 10 minutes and then 5 μM (final conc.) PGI2 is added just before centrifugation at 1900×g for 8 minutes. The resulting pellet is resuspended in 40 mL of HEPES-buffered Tyrode's solution containing 5 μM (final concentration) PGI2 and then is incubated for 10 minutes in a 37° C. water bath. A small aliquot (500 μL) of the platelet suspension is removed for platelet counting. Prior to centrifugation 5 μM (final concentration) PGI2 is added to the suspension and then the suspension is centrifuged at 1900×g for 8 minutes. The pellet is resuspended at a density of 5×10^8 cells/mL in HEPES-buffered Tyrode's solution containing 0.05 U/mL apyrase. Aggregation Studies: ADP-induced platelet aggregation is determined by measuring the transmission of light through a 0.5 ml suspension of stirred (1000 rpm) washed platelets in a lumi-aggregometer at 37° C. (Chrono-Log Corp. Havertown, Pa.). The baseline of the instrument is set using 0.5 ml of Hepes-buffered Tyrode's solution. Prior to aggregation measurements, the platelet suspension is supplemented with 1 mg/ml fibrinogen. Platelet aggregation is initiated by the addition of indicated concentrations of ADP or other agonists, and the light transmission is continuously recorded for at least 8 min. When inhibitors of platelet aggregation are tested, platelets are incubated for 2 min in the presence of indicated concentrations of inhibitor before addition of ADP or other agonists, and the response is recorded for at least 8 min. The potency of agonists and inhibitors of platelet aggregation is calculated from both the rate of aggregation and the maximal extent of aggregation obtained for each determination by fitting the data to a four-parameter logistic equation using the GraphPad software package (GraphPad Corp. San Diego, Calif.).
IC50 values represent the concentration of antagonist necessary to inhibit by 50% the aggregation elicited by a given concentration of ADP.
The agonist challenge (ADP) was typically in the range of 1-5 μM. Data are presented in μM and are from the average of two experiments or more.

[2] = Oral bioavailability (%F) following oral vs intravenous administration in rats; type: in vivo, male Sprague-Dawley rats; settings: rat; for bioavailability: male, Sprague-Dawley, plasma, po
Method: These compounds were administered intravenously and orally to compare the extent of absorption by the oral route to the intravenous route and evaluate their ability to inhibit platelet aggregation in vivo. The following brief protocol describes the experiment methodology.
While anesthetized by an inhaled anesthetic, male Sprague-Dawley rats were surgically cannulated in the jugular vein for blood sample collection in order to assess systemic exposure of the compound after oral or intravenous administration and platelet aggregation. For the oral studies, compounds were administered as suspensions of the free acid or sodium salt forms, or as solutions of the sodium salt forms. Animals were allowed 48 hours to recover prior to dose administration.
A blood samples was taken immediately prior to compound administration. This sample was used to assess the baseline platelet aggregation and potential drug interference in the LC/MS/MS analysis. Compound was administered by either oral gavage or tail vein and blood samples were withdrawn for plasma analysis at up to 12 time points ranging from 5 min to 24 hours following compound administration. LC/MS/MS was used to measure the amount of compound in the plasma after both routes of administration and the plasma exposure was compared between the oral and IV routes (%F). %F is the % of the administered dose that is absorbed after oral administration. […] The in vivo platelet aggregation data that was acquired at similar time points was then compared to the plasma concentration and a calculation of the concentration needed to inhibit platelet aggregation was made.
The bioavailability of certain compounds of the present invention was determined following oral administration in rats, according to the protocol of Example 5. The compounds were administered as either a suspension of the free acid forms, a suspension of the sodium salt forms, or as a solution of the sodium salt forms.

[3] = Homo sapiens, Platelet, read-out: PLATELET DATA IC50 Washed Platelets, washed human platelets
[4] = administered as solution of the sodium salt form, read-out: % F, salt solution
[5] = administered as suspension of the free acid form, read-out: % F, free acid suspension
[6] = read-out: PLATELET DATA IC50 Washed Platelets, washed human platelets
[7] = administered as suspension of the sodium salt form, read-out: % F, salt suspension

Question: Which results are given for `CCNC(=O)Nc1ncnc2c1ncn2C1OC(COc2ccccc2C(=O)O)C2O[C@H](/C=C/c3ccccc3)OC21` (some centres unmarked) [Compound 1]?
Answer: IC50 [1, 3]: 319 nM; bioavailability [2, 4]: ~39%; bioavailability [2, 5]: 8 to 13%; bioavailability following oral administration (in words) [2]: high bioavailability; % F, free acid suspension ([2]; administered as suspension of the free acid form): 8.7-13.1%

Question: Which IC50 [1, 3] does the source give for `CCNC(=O)Nc1ncnc2c1ncn2C1OC(COc2c(OC)cccc2C(=O)O)C2O[C@H](/C=C/c3ccccc3)OC21` (some centres unmarked) [Compound 2] here?
Answer: 279 nM

Question: Which IC50 [1, 3] does the source give for `CCNC(=O)Nc1ncnc2c1ncn2C1OC(COc2cc(OC)ccc2C(=O)O)C2O[C@H](/C=C/c3ccccc3)OC21` (some centres unmarked) [Compound 3] here?
Answer: 404 nM

Question: For `CCNC(=O)Nc1ncnc2c1ncn2C1OC(COc2ccc(F)cc2C(=O)O)C2O[C@H](/C=C/c3ccccc3)OC21` (some centres unmarked) [Compound 4], which IC50 [1, 3] is on record?
Answer: 105 nM

Question: With `CCNC(=O)Nc1ncnc2c1ncn2C1OC(COc2ccc(C)cc2C(=O)O)C2O[C@H](/C=C/c3ccccc3)OC21` (some centres unmarked) [Compound 5] as the molecule, how does the IC50 [1, 3] read?
Answer: 536 nM

Question: Which IC50 [1, 3] does the source give for `CCNC(=O)Nc1ncnc2c1ncn2C1OC(COc2ccccc2CC(=O)O)C2O[C@H](/C=C/c3ccccc3)OC21` (some centres unmarked) [Compound 6] here?
Answer: 297 nM

Question: With `CCNC(=O)Nc1ncnc2c1ncn2C1OC(COc2cc(F)ccc2C(=O)O)C2O[C@H](/C=C/c3ccccc3)OC21` (some centres unmarked) [Compound 7] as the molecule, how does the IC50 [1, 3] read?
Answer: 385 nM

Question: Which IC50 [1, 3] does the source give for `CCNC(=O)Nc1ncnc2c1ncn2C1OC(COc2cccc(F)c2C(=O)O)C2OC(/C=C/c3ccccc3)OC21` (centres unmarked) [Compound 8] here?
Answer: 134 nM

Question: Which IC50 [1, 3] does the source give for `CCNC(=O)Nc1ncnc2c1ncn2C1OC(COc2ccc(OC)cc2C(=O)O)C2O[C@H](/C=C/c3ccccc3)OC21` (some centres unmarked) [Compound 9] here?
Answer: 744 nM

Question: With `CCNC(=O)Nc1ncnc2c1ncn2C1OC(COc2ccccc2CC(=O)O)C2OC(c3ccc(F)cc3)OC21` (centres unmarked) [Compound 11] as the molecule, how does the IC50 [1, 3] read?
Answer: 570 nM

Question: With `CCNC(=O)Nc1ncnc2c1ncn2C1OC(COc2ccccc2C(=O)O)C2O[C@H](c3ccc(F)cc3)OC21` (some centres unmarked) [Compound 12] as the molecule, how does the IC50 [1, 3] read?
Answer: 200 nM

Question: For `CCNC(=O)Nc1ncnc2c1ncn2C1OC(COc2ccc(F)cc2C(=O)O)C2O[C@H](c3ccc(F)cc3)OC21` (some centres unmarked) [Compound 13], which IC50 [1, 3] is on record?
Answer: < 100 nM

Question: And the IC50 [1, 6]?
Answer: 89 nM

Question: With `CCNC(=O)Nc1ncnc2c1ncn2C1OC(COc2cc(OC)ccc2C(=O)O)C2OC(c3ccc(F)cc3)OC21` (centres unmarked) [Compound 14, 2-[6-[6-(3-Ethyl-ureido)-purin-9-yl]-2-(4-fluoro-phenyl)-tetrahydro-furo[3,4-d][1,3]dioxol-4-ylmethoxyl]-4-methoxy-benzoic acid] as the molecule, how does the IC50 [1, 3] read?
Answer: < 100 nM

Question: What about the IC50 [1, 6] of the same molecule?
Answer: 96 nM

Question: What about the bioavailability [2, 4] of the same molecule?
Answer: ~44%

Question: And the bioavailability [2, 7]?
Answer: 21.5 to 22.1%

Question: What about the “bioavailability following oral administration (in words)” value [2] of the same molecule?
Answer: high bioavailability

Question: With `CCCNC(=O)Nc1ncnc2c1ncn2C1OC(COc2ccccc2C(=O)O)C2O[C@H](c3ccc(F)cc3)OC21` (some centres unmarked) [Compound 15] as the molecule, how does the IC50 [1, 3] read?
Answer: 190 nM

Question: What about the bioavailability [2, 4] of the same molecule?
Answer: ~53%

Question: What about the bioavailability [2, 5] of the same molecule?
Answer: 14.3 to 14.6%

Question: And the bioavailability [2, 7]?
Answer: 29.5 to 29.9%

Question: And the “bioavailability following oral administration (in words)” value [2]?
Answer: high bioavailability

Question: And the “% F, salt solution” value ([2]; administered as solution of the sodium salt form)?
Answer: 52.5-53.4%

Question: Which IC50 [1, 3] does the source give for `CCCCNC(=O)Nc1ncnc2c1ncn2C1OC(COc2c(OC)cccc2C(=O)O)C2O[C@H](c3ccc(F)cc3)OC21` (some centres unmarked) [Compound 19] here?
Answer: < 100 nM

Question: What about the IC50 [1, 6] of the same molecule?
Answer: 62 nM

Question: What does the source list for `CCCNC(=O)Nc1ncnc2c1ncn2C1OC(COc2cc(OC)ccc2C(=O)O)C2O[C@H](c3ccc(F)cc3)OC21` (some centres unmarked) [Compound 20]?
Answer: IC50 [1, 3]: < 100 nM; IC50 [1, 6]: 92 nM

Question: With `CCCCNC(=O)Nc1ncnc2c1ncn2C1OC(COc2cc(OC)ccc2C(=O)O)C2O[C@H](c3ccc(F)cc3)OC21` (some centres unmarked) [Compound 21] as the molecule, how does the IC50 [1, 3] read?
Answer: < 100 nM

Question: What about the IC50 [1, 6] of the same molecule?
Answer: 87 nM

Question: With `COc1ccc(C(=O)O)c(OCC2OC(n3cnc4c(NC(=O)NC5CC5)ncnc43)C3O[C@@H](c4ccc(F)cc4)OC23)c1` (some centres unmarked) [Compound 22] as the molecule, how does the IC50 [1, 3] read?
Answer: < 100 nM

Question: What about the IC50 [1, 6] of the same molecule?
Answer: 99 nM

Question: What does the source list for `COc1ccc(C(=O)O)c(OCC2OC(n3cnc4c(NC(=O)NCC5CC5)ncnc43)C3O[C@@H](c4ccc(F)cc4)OC23)c1` (some centres unmarked) [Compound 23]?
Answer: IC50 [1, 3]: < 100 nM; IC50 [1, 6]: 99 nM

Question: With `CCNC(=O)Nc1ncnc2c1ncn2C1OC(COc2c(F)cccc2C(=O)O)C2O[C@H](c3ccc(F)cc3)OC21` (some centres unmarked) [Compound 25] as the molecule, how does the “% inhibition of ADP-induced platelet aggregation at fixed concentration” value (“% inhibition” for short) ([1]; washed human platelets) read?
Answer: 46% inh. @ 0.3 μM

Question: Which “% inhibition” value ([1]; washed human platelets) does the source give for `CCCNC(=O)Nc1ncnc2c1ncn2C1OC(COc2cc(F)ccc2C(=O)O)C2O[C@H](c3ccc(F)cc3)OC21` (some centres unmarked) [Compound 28] here?
Answer: 64% inh. @ 0.3 μM

Question: For `CCCNC(=O)Nc1ncnc2c1ncn2C1OC(COc2cccc(F)c2C(=O)O)C2O[C@H](c3ccc(F)cc3)OC21` (some centres unmarked) [Compound 30], which “% inhibition” value ([1]; washed human platelets) is on record?
Answer: 56% inh. @ 0.3 μM

Question: Which “% inhibition” value ([1]; washed human platelets) does the source give for `COc1cccc(C(=O)O)c1OCC1OC(n2cnc3c(NC(=O)NC4CC4)ncnc32)C2O[C@@H](c3ccc(F)cc3)OC12` (some centres unmarked) [Compound 33] here?
Answer: 56% inh. @ 0.3 μM

Question: Which “% inhibition” value ([1]; washed human platelets) does the source give for `CCNC(=O)Nc1ncnc2c1ncn2C1OC(COc2ccc(OC)cc2C(=O)O)C2O[C@H](c3ccc(F)cc3)OC21` (some centres unmarked) [Compound 34] here?
Answer: 52% inh. @ 0.3 μM

Question: With `O=C(Nc1ncnc2c1ncn2C1OC(COc2cc(F)ccc2C(=O)O)C2O[C@H](c3ccc(F)cc3)OC21)NC1CC1` (some centres unmarked) [Compound 35] as the molecule, how does the “% inhibition” value ([1]; washed human platelets) read?
Answer: 61% inh. @ 0.3 μM
